Laboratory results: paper PMC6511888, “Synthesis, Biological Evaluation, and Molecular Modeling Studies of New Thiadiazole Derivatives as Potent P2X7 Receptor Inhibitors” (Frontiers in Chemistry, 2019)

Tests used:
P2X1R = target: T1, P2X1R (Mus musculus, UniProt P51576); experiment: β,γ-meATP-induced intracellular Ca2+ mobilization in J774 cells; format: cell-based; settings: 100 μM
T1 construct: endogenous in cells; host or cells: J774 cells
T1 sequence (P51576 1-399): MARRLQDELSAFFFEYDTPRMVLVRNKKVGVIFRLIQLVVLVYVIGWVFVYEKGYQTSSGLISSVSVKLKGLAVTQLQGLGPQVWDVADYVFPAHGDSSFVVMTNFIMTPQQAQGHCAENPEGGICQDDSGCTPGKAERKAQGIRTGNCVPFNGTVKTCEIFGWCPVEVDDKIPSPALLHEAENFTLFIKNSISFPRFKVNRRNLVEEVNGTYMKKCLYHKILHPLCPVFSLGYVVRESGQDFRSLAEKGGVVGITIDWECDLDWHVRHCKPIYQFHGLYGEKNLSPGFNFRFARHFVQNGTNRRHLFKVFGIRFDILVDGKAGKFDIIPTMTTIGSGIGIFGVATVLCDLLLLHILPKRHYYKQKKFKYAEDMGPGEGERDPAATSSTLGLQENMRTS
Protocol: (§1) Mouse peritoneal macrophages, PC12 cells, J774 cells, and HEPG2 cells were analyzed by fluorescence microscopy to measure the intracellular Ca^2+ concentrations ([Ca^2+]i). Cells were incubated with 2 μM Fura-2-AM (Molecular Probes) for 30 min, and the [Ca^2+]i mobilization was measured in the F340/F380 ratios with a FlexStation 3 multimode microplate reader (Molecular Devices). Cells were plated in translucent 96-well plates (BD Falcon) for 15 min and then washed and incubated in a saline solution with 150 NaCl, 5 KCl, 1 MgCl2, 1 CaCl2, and 10 HEPES (pH 7.4) for 30 min before measurements of [Ca^2+]i. The Ca^2+ influx was induced by stimulating cells with P2 receptor agonists. P2 receptor antagonists were added 10 min before P2 receptor agonist addition. […] Ionomycin was considered a positive control, and the other recordings were normalized in relation to the AUC.

ATP-induced paw edema = ATP-induced paw edema in mice; format: in vivo, mouse; settings: 9f 0.001–1 mg/kg intraperitoneally 1 h before ATP, edema measured after 30 min
Protocol: (§2) Our protocols using Swiss Webster mice 4–5 weeks old adhered to the Ethical Principles in Animal Experimentation adopted by the Brazilian College of Animal Experimentation and approved by the FIOCRUZ Research Ethics Committee (Faria et al., [2018]) (number LW-5814). Mouse paw edema was stimulated with carrageenan (300 μg/paw) saline suspension for 60 min or ATP (10 mg/paw) for 30 min. Treatment with diclofenac (100 μg/kg), oxidized ATP (100 μg/kg), and analog 9f (0.001–1 mg/kg) was intraperitoneally administered 60 min prior to the […] administration of carrageenan or ATP. A plethysmometer (UGO Basil, Italy) was used to measure the edema before inductor injection, and the relative paw edema increased after carrageenan or ATP action.

P2X7R = target: T2, P2X7R (Mus musculus, UniProt Q9Z1M0); experiment: Whole-cell patch clamp, ATP-induced ionic currents in peritoneal macrophages; format: cell-based; settings: fixed 500 nM 9f; ATP 100 μM to 25 mM; whole-cell configuration
T2 construct: plated for 24 h before dye uptake assays, whole-cell patch clamp experiments, and IL-1β release assays; endogenous in cells; host or cells: mouse (Swiss Webster) peritoneal macrophages
T2 sequence (Q9Z1M0 1-595): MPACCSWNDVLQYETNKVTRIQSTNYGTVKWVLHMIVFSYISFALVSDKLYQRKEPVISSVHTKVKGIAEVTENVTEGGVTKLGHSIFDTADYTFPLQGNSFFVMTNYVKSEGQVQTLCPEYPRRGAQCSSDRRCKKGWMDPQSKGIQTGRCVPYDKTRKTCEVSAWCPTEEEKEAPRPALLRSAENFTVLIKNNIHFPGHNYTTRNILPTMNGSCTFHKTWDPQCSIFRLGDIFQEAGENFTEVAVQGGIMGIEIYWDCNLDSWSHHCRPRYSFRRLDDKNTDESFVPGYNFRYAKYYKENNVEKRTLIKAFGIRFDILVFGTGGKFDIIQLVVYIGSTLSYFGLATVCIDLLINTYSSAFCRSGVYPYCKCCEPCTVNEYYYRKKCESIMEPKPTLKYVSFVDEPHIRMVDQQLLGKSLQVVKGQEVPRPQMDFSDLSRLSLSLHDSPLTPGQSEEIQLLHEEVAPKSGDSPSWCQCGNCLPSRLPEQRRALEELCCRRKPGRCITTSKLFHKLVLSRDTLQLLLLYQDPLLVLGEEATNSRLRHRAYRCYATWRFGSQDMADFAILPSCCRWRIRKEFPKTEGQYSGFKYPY
Protocol: The whole-cell configuration was used in peritoneal macrophages as previously described (Faria et al., [2005]). All the experiments used bath and pipette solutions with a series resistance set as 6–11 MΩ. Ionic currents with amplitudes < 1,500 pA were not compensated; however, ionic currents above this level were compensated by 88%. The cell capacitance for peritoneal macrophages was (19 ± 1 pF; n = 86), and the recordings were obtained at a holding potential of −60 mV at 37°C.
The saline composition was as follows (in mM): 150 NaCl, 5 KCl, 1 MgCl2, 1 CaCl2, and 10 HEPES (pH 7.4) for the bath solution and 150 KCl, 5 NaCl, 1 MgCl2, 10 HEPES, and 0.1 EGTA (pH 7.4) for the pipette solution (Faria et al., [2018]).
[…] A perfusion chamber (RC-24 chamber, Warner Instrument Corp) operating at a rate of 1 ml/min was used in all experiments (Faria et al., [2018]).

[1] = system: carrageenan-induced paw edema; experiment: Carrageenan-induced paw edema in mice; format: in vivo, mouse; settings: 9f 0.001–1 mg/kg intraperitoneally 1 h before carrageenan, edema measured after 60 min
Protocol: as §2

P2X3R = experiment: α,β-meATP-induced [Ca2+]i shift; format: cell-based; settings: 100 μM
Protocol: as §1

CCOC(=O)c1cnn(-c2nnc(-c3ccccc3Cl)s2)c1N [Compound 9f]
Effect on β,γ-meATP-induced intracellular Ca2+ mobilization (P2X1R): did not reduce
ATP-induced paw edema (ATP-induced paw edema): dose-dependently decreased
EC50 of the ATP dose–response curve with fixed inhibitor vs ATP alone (P2X7R): higher
Carrageenan-induced paw edema [1]: dose-dependently decreased
Effect on activity of P2X3R agonist α,β-meATP (P2X3R): did not reduce
